This passage reports AC50 results from ChEMBL document CHEMBL5291721, “A preclinical secondary pharmacology resource illuminates target-adverse drug reaction associations of marketed drugs” (Nat Commun, 2023).

Structures are written as SMILES. Where only a bound is given, the exact number is not on record here.

Experiment [1] has as its target T1, Neuropeptide Y receptor type 2 (Homo sapiens, UniProt P49146).
T1 sequence (P49146 whole entry): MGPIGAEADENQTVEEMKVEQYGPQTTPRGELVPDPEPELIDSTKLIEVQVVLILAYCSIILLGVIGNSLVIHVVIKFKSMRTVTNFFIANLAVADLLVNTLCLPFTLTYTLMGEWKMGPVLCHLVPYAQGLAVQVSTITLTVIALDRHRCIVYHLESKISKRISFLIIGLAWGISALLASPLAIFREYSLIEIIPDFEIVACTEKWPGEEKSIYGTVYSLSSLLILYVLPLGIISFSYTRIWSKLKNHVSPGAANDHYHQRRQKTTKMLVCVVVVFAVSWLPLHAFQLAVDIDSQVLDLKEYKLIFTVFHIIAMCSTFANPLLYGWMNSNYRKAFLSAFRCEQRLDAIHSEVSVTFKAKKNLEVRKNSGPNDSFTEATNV

The target in experiment [2] is Voltage-dependent N-type calcium channel subunit alpha-1B (Rattus norvegicus, UniProt Q02294). The format is functional.
In experiment [3] the target is T2, Gastric inhibitory polypeptide receptor (Homo sapiens, UniProt P48546).
T2 sequence (P48546 whole entry): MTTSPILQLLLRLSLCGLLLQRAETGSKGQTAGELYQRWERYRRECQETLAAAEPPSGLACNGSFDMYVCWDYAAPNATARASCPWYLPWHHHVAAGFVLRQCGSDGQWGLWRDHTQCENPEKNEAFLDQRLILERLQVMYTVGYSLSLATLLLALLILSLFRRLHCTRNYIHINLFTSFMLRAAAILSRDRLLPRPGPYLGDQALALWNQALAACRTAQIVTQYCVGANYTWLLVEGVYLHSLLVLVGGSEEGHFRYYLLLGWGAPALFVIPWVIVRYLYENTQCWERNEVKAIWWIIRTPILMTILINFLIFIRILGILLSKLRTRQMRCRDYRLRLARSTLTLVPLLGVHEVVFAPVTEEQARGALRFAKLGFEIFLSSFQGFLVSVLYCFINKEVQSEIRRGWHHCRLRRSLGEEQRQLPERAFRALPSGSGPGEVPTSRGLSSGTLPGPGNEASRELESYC

In experiment [4] the target is T3, Corticotropin-releasing factor receptor 1 (Homo sapiens, UniProt P34998).
T3 sequence (P34998 whole entry): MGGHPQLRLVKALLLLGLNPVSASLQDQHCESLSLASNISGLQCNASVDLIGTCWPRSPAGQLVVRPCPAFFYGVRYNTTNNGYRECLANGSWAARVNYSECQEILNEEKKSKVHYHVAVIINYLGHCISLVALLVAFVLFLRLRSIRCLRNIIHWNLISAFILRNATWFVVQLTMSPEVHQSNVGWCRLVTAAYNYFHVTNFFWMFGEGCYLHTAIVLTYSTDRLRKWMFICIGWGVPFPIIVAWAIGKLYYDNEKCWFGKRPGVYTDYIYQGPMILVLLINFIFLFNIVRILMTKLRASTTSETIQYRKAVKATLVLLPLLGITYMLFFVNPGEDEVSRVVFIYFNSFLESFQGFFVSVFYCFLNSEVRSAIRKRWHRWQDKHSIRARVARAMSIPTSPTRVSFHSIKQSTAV

The next experiment concerns the target T4, B1 bradykinin receptor (Homo sapiens, UniProt P46663).
T4 sequence (P46663 whole entry): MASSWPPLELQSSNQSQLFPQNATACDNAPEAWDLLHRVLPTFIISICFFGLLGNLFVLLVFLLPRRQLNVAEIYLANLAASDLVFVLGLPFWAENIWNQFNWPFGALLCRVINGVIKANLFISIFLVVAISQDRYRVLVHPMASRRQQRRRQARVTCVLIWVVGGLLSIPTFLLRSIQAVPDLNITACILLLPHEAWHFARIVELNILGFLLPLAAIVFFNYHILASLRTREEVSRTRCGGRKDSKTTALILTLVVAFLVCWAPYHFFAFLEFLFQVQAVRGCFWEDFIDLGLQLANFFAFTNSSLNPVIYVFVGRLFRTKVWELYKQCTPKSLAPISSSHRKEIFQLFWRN

The target of experiment [5] is Neurotensin receptor type 1 (Homo sapiens, UniProt P30989).
The target of another experiment is T5, Thromboxane A2 receptor (Homo sapiens, UniProt P21731).
T5 sequence (P21731 whole entry): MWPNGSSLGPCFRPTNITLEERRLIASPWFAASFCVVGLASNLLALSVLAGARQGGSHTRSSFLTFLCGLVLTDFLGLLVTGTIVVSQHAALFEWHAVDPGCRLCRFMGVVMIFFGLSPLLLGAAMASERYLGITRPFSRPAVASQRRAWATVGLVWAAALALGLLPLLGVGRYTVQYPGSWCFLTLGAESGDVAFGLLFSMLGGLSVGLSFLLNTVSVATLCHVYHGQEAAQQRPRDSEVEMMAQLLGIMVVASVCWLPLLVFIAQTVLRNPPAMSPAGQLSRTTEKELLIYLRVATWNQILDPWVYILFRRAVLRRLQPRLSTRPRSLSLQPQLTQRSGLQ
The format is functional, cell-based.

Experiment [6] concerns the target 5-hydroxytryptamine receptor 2B (Homo sapiens, UniProt P41595). It is filed as functional, cell-based.
For experiment [7], the target named is T6, Prostaglandin G/H synthase 1 (Homo sapiens, UniProt P23219). It is filed as functional.
In experiment [8] the target is T6, Prostaglandin G/H synthase 1. The format is functional. This is another data set of the same source.
A further experiment deals with T7, Adenosine receptor A3 (Homo sapiens, UniProt P0DMS8).
T7 sequence (P0DMS8 whole entry): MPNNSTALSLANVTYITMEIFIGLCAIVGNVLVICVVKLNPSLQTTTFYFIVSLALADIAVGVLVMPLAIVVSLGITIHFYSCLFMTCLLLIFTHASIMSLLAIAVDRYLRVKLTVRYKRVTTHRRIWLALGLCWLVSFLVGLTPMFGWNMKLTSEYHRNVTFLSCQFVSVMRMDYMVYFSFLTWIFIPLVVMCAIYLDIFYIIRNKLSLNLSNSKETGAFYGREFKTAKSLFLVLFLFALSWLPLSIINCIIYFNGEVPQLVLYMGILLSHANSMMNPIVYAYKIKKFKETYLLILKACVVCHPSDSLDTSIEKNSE

In another experiment the target is Histamine H3 receptor (Homo sapiens, UniProt Q9Y5N1).
The target in experiment [9] is Sodium-dependent noradrenaline transporter (Homo sapiens, UniProt P23975).
The next experiment deals with Histamine H1 receptor (Homo sapiens, UniProt P35367). The format is functional, cell-based.
Further: assay procedure not described here.

T6 sequence (P23219 whole entry): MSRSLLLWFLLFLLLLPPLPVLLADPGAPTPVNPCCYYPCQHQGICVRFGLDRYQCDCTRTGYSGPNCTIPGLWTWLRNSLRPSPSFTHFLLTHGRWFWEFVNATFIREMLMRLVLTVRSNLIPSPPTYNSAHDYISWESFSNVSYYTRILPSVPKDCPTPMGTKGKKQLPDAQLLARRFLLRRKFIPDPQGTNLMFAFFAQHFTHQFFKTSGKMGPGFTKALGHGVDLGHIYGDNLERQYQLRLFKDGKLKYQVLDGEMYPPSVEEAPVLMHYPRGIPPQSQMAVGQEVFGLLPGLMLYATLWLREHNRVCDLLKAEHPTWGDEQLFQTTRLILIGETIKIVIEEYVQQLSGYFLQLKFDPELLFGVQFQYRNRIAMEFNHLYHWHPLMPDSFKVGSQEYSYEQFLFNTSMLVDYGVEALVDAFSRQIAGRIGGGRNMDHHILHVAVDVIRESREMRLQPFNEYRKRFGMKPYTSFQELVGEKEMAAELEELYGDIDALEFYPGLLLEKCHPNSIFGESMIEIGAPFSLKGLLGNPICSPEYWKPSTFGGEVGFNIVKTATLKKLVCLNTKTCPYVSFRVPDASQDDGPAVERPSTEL
Sequence of Histamine H1 receptor (P35367 whole entry): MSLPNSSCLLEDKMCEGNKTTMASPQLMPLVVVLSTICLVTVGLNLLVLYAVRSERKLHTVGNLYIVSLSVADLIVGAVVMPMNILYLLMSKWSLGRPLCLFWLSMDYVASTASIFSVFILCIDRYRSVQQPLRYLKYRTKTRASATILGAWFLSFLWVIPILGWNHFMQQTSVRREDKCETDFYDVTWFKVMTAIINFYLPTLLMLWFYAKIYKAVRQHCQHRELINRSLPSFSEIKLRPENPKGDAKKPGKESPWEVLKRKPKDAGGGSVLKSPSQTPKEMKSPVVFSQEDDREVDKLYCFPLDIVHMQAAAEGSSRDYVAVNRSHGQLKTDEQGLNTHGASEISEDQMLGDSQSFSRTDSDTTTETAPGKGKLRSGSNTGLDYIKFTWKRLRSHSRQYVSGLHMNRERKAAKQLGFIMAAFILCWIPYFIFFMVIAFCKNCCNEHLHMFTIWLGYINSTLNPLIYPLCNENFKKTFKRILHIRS
Sequence of Neurotensin receptor type 1 (P30989 whole entry): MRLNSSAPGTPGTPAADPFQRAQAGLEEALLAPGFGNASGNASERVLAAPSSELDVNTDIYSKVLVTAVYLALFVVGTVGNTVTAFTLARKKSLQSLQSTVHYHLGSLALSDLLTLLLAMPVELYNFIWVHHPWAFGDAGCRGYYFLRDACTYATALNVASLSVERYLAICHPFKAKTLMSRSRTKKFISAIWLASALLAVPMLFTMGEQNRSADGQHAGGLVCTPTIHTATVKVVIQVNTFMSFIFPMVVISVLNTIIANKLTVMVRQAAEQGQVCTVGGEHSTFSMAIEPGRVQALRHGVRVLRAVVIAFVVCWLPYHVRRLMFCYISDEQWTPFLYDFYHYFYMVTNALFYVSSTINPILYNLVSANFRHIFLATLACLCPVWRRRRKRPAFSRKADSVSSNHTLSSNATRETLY
Sequence of Sodium-dependent noradrenaline transporter (P23975 whole entry): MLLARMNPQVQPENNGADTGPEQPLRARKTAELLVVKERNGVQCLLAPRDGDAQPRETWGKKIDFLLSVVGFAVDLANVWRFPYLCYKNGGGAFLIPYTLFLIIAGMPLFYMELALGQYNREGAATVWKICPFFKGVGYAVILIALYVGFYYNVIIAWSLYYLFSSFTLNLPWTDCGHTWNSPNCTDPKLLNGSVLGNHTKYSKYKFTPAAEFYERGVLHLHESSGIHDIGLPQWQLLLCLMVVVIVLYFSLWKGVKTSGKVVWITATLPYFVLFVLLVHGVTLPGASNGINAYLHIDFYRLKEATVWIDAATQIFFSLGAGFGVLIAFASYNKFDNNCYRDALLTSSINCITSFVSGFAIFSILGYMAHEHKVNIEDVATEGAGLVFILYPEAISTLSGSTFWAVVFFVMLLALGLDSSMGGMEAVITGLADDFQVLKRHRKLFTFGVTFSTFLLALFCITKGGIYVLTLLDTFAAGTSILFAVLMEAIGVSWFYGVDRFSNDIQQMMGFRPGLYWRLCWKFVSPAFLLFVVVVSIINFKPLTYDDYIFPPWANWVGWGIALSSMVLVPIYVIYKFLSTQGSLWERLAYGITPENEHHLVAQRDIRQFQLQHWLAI
Sequence of Histamine H3 receptor (Q9Y5N1 whole entry): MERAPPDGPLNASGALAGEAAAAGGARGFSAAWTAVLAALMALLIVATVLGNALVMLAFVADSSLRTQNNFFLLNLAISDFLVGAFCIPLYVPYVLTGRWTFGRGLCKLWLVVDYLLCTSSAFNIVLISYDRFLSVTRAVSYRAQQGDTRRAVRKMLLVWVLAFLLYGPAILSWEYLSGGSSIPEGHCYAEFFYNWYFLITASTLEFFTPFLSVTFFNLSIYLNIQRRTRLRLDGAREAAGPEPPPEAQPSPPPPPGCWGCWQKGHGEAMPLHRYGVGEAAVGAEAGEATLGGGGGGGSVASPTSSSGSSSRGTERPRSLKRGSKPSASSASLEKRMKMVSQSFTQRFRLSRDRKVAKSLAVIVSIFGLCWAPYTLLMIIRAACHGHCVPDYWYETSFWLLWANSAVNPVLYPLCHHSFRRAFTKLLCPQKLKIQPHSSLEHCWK
Sequence of Voltage-dependent N-type calcium channel subunit alpha-1B (Q02294 whole entry): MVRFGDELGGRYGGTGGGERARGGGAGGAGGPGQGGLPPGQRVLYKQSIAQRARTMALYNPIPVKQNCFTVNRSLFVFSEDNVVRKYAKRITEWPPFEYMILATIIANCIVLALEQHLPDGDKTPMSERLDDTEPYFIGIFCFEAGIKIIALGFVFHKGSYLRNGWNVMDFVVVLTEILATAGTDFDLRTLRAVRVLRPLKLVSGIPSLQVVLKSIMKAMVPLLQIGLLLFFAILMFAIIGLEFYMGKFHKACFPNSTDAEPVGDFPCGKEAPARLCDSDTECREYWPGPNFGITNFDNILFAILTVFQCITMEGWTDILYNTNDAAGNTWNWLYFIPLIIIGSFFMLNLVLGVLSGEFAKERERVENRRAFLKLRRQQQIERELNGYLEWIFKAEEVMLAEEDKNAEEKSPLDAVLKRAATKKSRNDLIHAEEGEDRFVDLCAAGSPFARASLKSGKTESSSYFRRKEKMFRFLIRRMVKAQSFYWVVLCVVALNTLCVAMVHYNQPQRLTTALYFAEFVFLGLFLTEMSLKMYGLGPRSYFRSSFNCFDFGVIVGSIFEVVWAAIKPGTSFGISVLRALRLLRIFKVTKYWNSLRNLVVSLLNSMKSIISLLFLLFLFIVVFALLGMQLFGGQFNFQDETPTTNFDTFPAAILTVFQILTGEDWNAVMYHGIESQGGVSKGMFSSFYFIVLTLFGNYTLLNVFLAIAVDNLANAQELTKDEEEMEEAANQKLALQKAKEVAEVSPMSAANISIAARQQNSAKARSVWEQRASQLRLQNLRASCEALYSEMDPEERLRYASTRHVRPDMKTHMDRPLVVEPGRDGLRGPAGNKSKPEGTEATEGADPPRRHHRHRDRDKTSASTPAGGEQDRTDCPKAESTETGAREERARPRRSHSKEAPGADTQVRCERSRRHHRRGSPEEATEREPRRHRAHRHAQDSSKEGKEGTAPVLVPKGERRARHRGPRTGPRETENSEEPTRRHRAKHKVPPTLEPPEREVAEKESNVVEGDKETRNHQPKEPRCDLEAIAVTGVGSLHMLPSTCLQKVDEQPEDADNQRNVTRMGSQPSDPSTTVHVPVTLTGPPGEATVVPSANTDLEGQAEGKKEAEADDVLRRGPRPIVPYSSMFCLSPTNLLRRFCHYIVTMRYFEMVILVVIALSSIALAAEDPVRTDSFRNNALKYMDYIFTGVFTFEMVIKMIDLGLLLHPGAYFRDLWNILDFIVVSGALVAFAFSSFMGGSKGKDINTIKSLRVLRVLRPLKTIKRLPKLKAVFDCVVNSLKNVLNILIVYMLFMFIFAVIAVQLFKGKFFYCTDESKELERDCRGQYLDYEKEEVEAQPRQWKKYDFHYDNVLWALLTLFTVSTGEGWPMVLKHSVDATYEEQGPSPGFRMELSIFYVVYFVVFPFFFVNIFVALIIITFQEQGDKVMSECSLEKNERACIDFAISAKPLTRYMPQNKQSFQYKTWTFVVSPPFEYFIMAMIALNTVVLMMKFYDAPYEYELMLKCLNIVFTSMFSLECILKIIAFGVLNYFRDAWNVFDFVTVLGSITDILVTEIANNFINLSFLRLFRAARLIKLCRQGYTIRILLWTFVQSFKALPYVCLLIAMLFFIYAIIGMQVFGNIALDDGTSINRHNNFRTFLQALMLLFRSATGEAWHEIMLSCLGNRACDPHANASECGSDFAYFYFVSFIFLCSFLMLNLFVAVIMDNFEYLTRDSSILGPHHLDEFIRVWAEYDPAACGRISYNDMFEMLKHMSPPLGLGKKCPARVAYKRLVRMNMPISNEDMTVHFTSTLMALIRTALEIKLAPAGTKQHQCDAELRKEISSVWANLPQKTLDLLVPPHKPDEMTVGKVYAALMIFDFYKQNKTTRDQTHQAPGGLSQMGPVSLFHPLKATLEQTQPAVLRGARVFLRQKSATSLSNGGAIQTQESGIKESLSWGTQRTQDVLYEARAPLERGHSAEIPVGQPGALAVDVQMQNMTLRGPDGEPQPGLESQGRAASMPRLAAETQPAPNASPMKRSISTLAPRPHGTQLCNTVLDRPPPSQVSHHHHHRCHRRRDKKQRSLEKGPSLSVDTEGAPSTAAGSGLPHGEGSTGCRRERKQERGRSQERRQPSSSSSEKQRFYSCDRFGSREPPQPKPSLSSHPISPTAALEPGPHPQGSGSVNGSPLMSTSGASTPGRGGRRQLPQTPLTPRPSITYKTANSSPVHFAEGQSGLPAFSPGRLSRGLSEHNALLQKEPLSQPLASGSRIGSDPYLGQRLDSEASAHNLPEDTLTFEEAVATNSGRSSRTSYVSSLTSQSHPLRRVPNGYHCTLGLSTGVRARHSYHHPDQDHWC

Take `Cn1c(=O)cc(N2CCC[C@@H](N)C2)n(Cc2ccccc2C#N)c1=O` [ALOGLIPTIN]: the AC50 in experiment [1] was greater than 30 µM; in [2] it was greater than 10 µM; in experiment [3] it was greater than 30 µM; in experiment [4], greater than 30 µM; at B1 bradykinin receptor, greater than 30 µM; in experiment [5], greater than 30 µM.

`Nc1c2ccccc2nc2ccccc12` [AMINACRINE]: the AC50 at Thromboxane A2 receptor is greater than 30 µM; in experiment [6] it was greater than 30 µM; in experiment [7], greater than 30 µM; in [8] it was greater than 30 µM; at Adenosine receptor A3, 9.62 µM; on Histamine H3 receptor it was greater than 30 µM. The AC50 in experiment [9] was 2.95 µM.

Regarding `CCN1CCCC1CNC(=O)c1cc(S(=O)(=O)CC)c(N)cc1OC` (stereo not drawn) [AMISULPRIDE], at Histamine H1 receptor, the AC50 was greater than 30 µM.

Regarding `CC(=O)OCC(=O)[C@@]1(O)[C@H](C)C[C@H]2[C@@H]3CCC4=CC(=O)C=C[C@]4(C)[C@@]3(F)[C@@H](O)C[C@@]21C` [DEXAMETHASONE ACETATE], the AC50 in experiment [1] was greater than 30 µM; in [2], greater than 10 µM; in [3], greater than 30 µM; in [4] it was greater than 30 µM; at B1 bradykinin receptor it was greater than 30 µM; in experiment [5], greater than 30 µM.

For `O=C(O)CCCCC1CCSS1` (stereo not drawn) [LIPOIC ACID, ALPHA], the AC50 (on Thromboxane A2 receptor; in experiment [6]; in experiment [7]; in experiment [8]; on Adenosine receptor A3; on Histamine H3 receptor) was greater than 30 µM each time. In [9], this compound gave an AC50 greater than 30 µM.

Turning to `OCc1cc(C(O)CNCCCCCCOCCCCc2ccccc2)ccc1O` (stereo not drawn) [SALMETEROL], the AC50 at Histamine H1 receptor was greater than 30 µM.

In general, AC50 refers to the midpoint of the concentration-response curve, whichever way the signal moves.
